Measured values reported in PMC5963757, “Expression, purification, and inhibition profile of dihydrofolate reductase from the filarial nematode Wuchereria bancrofti” (PLoS ONE, 2018).
Where “and” joins values, the source holds several entries; their conditions need not be identical. Equal entries are not always repeated. Entries after “also recorded” stand apart in the source; their conditions may differ. Where two headings read alike, the source gives them in different places.

Tests used:
WbDHFR [1] = target: T1, WbDHFR (Wuchereria bancrofti, UniProt J9F199); type: biochemical; conditions: for inhibition of WbDHFR (in words): pH 6.0, 25°C
Description: (§1) Compounds (-)-epicatechin, (-)-epicatechin gallate, and vitexin were tested as inhibitors of WbDHFR and BmDHFR. The compounds (-)-epicatechin and (-)-epicatechin gallate were synthesized as described previously. […] Disappearance of DHF and NADPH was observed by measuring absorbance at 340 nm to measure the DHFR activity in a SpectraMax M3 microplate reader. […] All experiments were completed in triplicate.

BmDHFR [2] = target: T2, BmDHFR (Brugia malayi, UniProt A0A4E9FIQ4); assay: biochemical; type: biochemical; conditions: for inhibition of BmDHFR (in words): pH 6.0, 25°C
Description: as §1
A linear equation was fitted to the data at each substrate concentration. […] The KI values for BmDHFR in Table 1 were obtained using the Cheng-Prusoff Equation [18]. […] Inhibitor structures are shown in supporting information (S2 Fig).

BmDHFR [3] = target: T2, BmDHFR; set-up: method as in PMID 26669020; conditions: computational prediction, cited from earlier work
BmDHFR [4] = target: T2, BmDHFR; conditions: read-out: KM previously determined for BmDHFR; cited from earlier work
WbDHFR [5] = target: T1, WbDHFR; assay: Michaelis-Menten kinetics of WbDHFR, KM for DHF; type: biochemical; conditions: pH 6.0, 25°C, 100 μM NADPH, MTEN buffer; ± S.D.
Description: To characterize DHFR enzymatic activity, we measured absorbance at 340 nm to follow the disappearance of DHF substrate and NADPH cofactor over time. The KM of WbDHFR for DHF was determined over a concentration range of 3.8 to 195 μM DHF, at 25°C, in MTEN buffer (50 mM 2-morpholinoethane sulphonic acid (MES), 25 mM Tris, 25 mM ethanolamine, 100 mM NaCl, and 1mM DTT) at pH 6.0. Initial velocity was plotted as a function of DHF concentration using KaleidaGraph and the Michaelis-Menten equation was fitted to the data. Catalytic activities of WbDHFR and BmDHFR were determined at various pH values (5.5–9.0) in MTEN buffer. The MTEN buffer used for all the reported assays has essentially a constant ionic strength at 0.15 over the pH range for which pH values were measured. Initial velocity was plotted as a function of pH using Excel.
Fig 2 Representative Michaelis-Menten curve. The conditions in the experimental wells (200 μL) were 100 μM NADPH, 12.4 nM WbDHFR in 1 X MTEN buffer at pH 6.0 with DHF concentrations ranging from 0 to 195 μM. The Michaelis-Menten equation was fitted to the data using KaleidaGraph. The Michaelis-Menten constant for DHF was determined by averaging values from fitting three separate data sets and found to be 3.7 ± 2.0 μM (S.D.).

BmDHFR [6] = target: T2, BmDHFR; set-up: method as in PMID 27544923; conditions: read-out: IC50 BmDHFR found previously; cited from earlier work
[7] = pH 6.0, 100 μM NADPH, 50 μM DHF, 40 nM BmDHFR, average of triplicates ± S.D., read-out: IC50 BmDHFR
[8] = read-out: predicted KI against BmDHFR
[9] = IC50 BmDHFR, pH 6.0, 100 μM NADPH, 50 μM DHF, 40 nM BmDHFR, average of triplicates ± S.D.
[10] = IC50 against BmDHFR Average, average of three trials
[11] = IC50 against BmDHFR Trial 1, individual trial
[12] = IC50 against BmDHFR Trial 2, individual trial
[13] = IC50 against BmDHFR Trial 3, individual trial
[14] = average of three trials, read-out: IC50 against BmDHFR Average
[15] = individual trial, read-out: IC50 against BmDHFR Trial 1
[16] = individual trial, read-out: IC50 against BmDHFR Trial 2
[17] = obtained using the Cheng-Prusoff Equation, upper limit for tight-binding inhibitors, read-out: KI BmDHFR

For `Oc1cc(O)c2c(c1)O[C@H](c1ccc(O)c(O)c1)[C@H](O)C2` [(-)-Epicatechin, (-)-epicatechin], the “inhibition of WbDHFR (in words)” value (WbDHFR [1]) was “did not observe inhibition; also recorded: neither compound showed any inhibitory activity”, the IC50 (BmDHFR [2]; [7]) was over 2500 µM and the “inhibition of BmDHFR (in words)” value (BmDHFR [2]) was “did not observe inhibition; also recorded: neither compound showed any inhibitory activity”. The Ki (BmDHFR [3]; [8]) was 76 µM.
With `Nc1nc(N)c2nc(CNc3ccc(C(=O)N[C@@H](CCC(=O)O)C(=O)O)cc3)cnc2n1` [Aminopterin, aminopterin] the “inhibition of WbDHFR (in words)” value (WbDHFR [1]) was “inhibit”, the Ki (BmDHFR [2]) was under 0.0017 µM and the IC50 (BmDHFR [2]; [9]) was 0.0075 ± 0.0003 µM. For the same compound, the IC50 (BmDHFR [2]; [10]) was 0.00755 µM, the IC50 (BmDHFR [2]; [11]) was 0.0072 µM and the IC50 (BmDHFR [2]; [12]) was 0.0076 µM. It also gave an IC50 (BmDHFR [2]; [13]) of 0.00784 µM.
In the case of `Nc1nc(=O)c2c([nH]1)NCC(CNc1ccc(C(=O)N[C@@H](CCC(=O)O)C(=O)O)cc1)=N2` [DHF, dihydrofolate], the Km (BmDHFR [4]) is listed as 14.7 ± 3.6 µM and the Km (WbDHFR [5]) is listed as 3.7 ± 2 µM.
In the case of `CN(Cc1cnc2nc(N)nc(N)c2n1)c1ccc(C(=O)N[C@@H](CCC(=O)O)C(=O)O)cc1` [Methotrexate, methotrexate], the “inhibition of WbDHFR (in words)” value (WbDHFR [1]) is reported as “inhibit”.
In the case of `CCc1nc(N)nc(N)c1-c1ccc(Cl)cc1` [Pyrimethamine, pyrimethamine], the IC50 (BmDHFR [6]) is listed as 109 ± 34 µM, the “inhibition of WbDHFR (in words)” value (WbDHFR [1]) is listed as “inhibit” and the IC50 (BmDHFR [2]; [14]) is listed as 16 µM. The IC50 (BmDHFR [2]; [15]) was 16.4 µM, the IC50 (BmDHFR [2]; [16]) was 21.8 µM and the IC50 (BmDHFR [2]; individual trial, read-out: IC50 against BmDHFR Trial 3) was 8.7 µM. The Ki (BmDHFR [2]; [17]) was 3.6 ± 1.5 µM and the IC50 (BmDHFR [2]; [7]) was 15.6 µM and 16 µM.
For `Cc1nc2ccc(CN(C)c3ccc(C(=O)N[C@@H](CCC(=O)O)C(=O)O)s3)cc2c(=O)[nH]1` [Raltitrexed, raltitrexed], the “inhibition of WbDHFR (in words)” value (WbDHFR [1]) was “inhibit”, the IC50 (BmDHFR [2]; [14]) was 7.3 µM and the IC50 (BmDHFR [2]; [15]) was 7.1 µM. It also gave an IC50 (BmDHFR [2]; [16]) of 6.83 µM, a Ki (BmDHFR [2]; [17]) of 1.6 ± 0.04 µM and an IC50 (BmDHFR [2]; [7]) of 7.3 ± 0.2 µM.
For `COc1cc(Cc2cnc(N)nc2N)cc(OC)c1OC` [Trimethoprim, trimethoprim], the “inhibition of WbDHFR (in words)” value (WbDHFR [1]) was “inhibit”, the Ki (BmDHFR [2]) was 15 ± 3 µM and the IC50 (BmDHFR [2]; [9]) was 65 ± 13 µM. For the same compound, the IC50 (BmDHFR [2]; [10]) was 64.7 µM, the IC50 (BmDHFR [2]; [11]) was 80.4 µM and the IC50 (BmDHFR [2]; [12]) was 61.1 µM. For the same compound, the IC50 (BmDHFR [2]; [13]) was 48.9 µM and the Ki (BmDHFR [3]; [8]) was 11 µM.
In the case of `O=c1cc(-c2ccc(O)cc2)oc2c([C@@H]3O[C@H](CO)[C@@H](O)[C@H](O)[C@H]3O)c(O)cc(O)c12` [Vitexin, vitexin], the “inhibition of WbDHFR (in words)” value (WbDHFR [1]) is reported as “did not observe inhibition”, the IC50 (BmDHFR [2]; [9]) is reported as over 240 µM and the “inhibition of BmDHFR (in words)” value (BmDHFR [2]) is reported as “did not observe any inhibition”. For the same compound, the Ki (BmDHFR [3]; read-out: predicted inhibitor of BmDHFR) was 0.465 µM.
For (-)-epicatechin gallate, the IC50 (WbDHFR [1]; pH 6.0, 100 μM NADPH, 50 μM DHF, 12.1 nM WbDHFR, average of triplicates ± S.D., read-out: IC50 WbDHFR) was over 1000 µM, the “inhibition of WbDHFR (in words)” value (WbDHFR [1]) was “did not observe inhibition; also recorded: neither compound showed any inhibitory activity” and the IC50 (BmDHFR [2]; [7]) was over 1000 µM. For the same compound, the “inhibition of BmDHFR (in words)” value (BmDHFR [2]) was “did not observe inhibition; also recorded: neither compound showed any inhibitory activity” and the Ki (BmDHFR [3]; [8]) was 48 µM.
